# Data reported in patent publication US9758459B2, “Allosteric modulators of factor XIa as anticoagulant agents” (VIRGINIA COMMONWEALTH UNIVERSITY, priority 2012, dated 2017).
# “And” between values parts separate entries of the source, which are not always exact repeats. Identical values can stand only once. Like-named read-outs stand apart in the source and are kept apart here.
# Assays:
# human FXIa = target: T1, human FXIa (Homo sapiens, UniProt P03951); test: Inhibition of FXIa by SPGG in the presence of UFH (competition); format: biochemical
# T1 construct: purchased Haematologic Technologies (Essex Junction, Vt.); host or cells: human plasma
# T1 sequence (P03951 19-387 limits assumed): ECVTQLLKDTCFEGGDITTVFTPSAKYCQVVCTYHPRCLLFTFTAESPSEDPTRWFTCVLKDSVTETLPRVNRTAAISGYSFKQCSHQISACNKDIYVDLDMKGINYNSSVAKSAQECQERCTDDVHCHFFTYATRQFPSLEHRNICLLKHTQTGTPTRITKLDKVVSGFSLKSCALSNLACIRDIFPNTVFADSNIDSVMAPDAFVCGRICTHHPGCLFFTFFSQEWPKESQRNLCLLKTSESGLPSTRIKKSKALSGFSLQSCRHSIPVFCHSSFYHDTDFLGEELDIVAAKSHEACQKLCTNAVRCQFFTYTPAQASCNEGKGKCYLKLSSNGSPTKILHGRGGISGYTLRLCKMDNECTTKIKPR
# T1 sequence (P03951 388-625 limits assumed): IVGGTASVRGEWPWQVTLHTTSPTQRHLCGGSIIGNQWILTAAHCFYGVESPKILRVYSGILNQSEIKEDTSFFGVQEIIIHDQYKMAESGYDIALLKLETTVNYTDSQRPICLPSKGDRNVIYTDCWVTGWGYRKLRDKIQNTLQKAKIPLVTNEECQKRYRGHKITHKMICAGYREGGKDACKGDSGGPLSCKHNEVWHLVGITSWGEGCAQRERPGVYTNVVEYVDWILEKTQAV
# Method: (§1) Solvent A consisted of 25 mM n-hexylamine in water containing 0.1% (v/v) formic acid, while solvent B consisted of 25 mM n-hexylamine in acetonitrile-water mixture (3:1 v/v) containing 0.1% (v/v) formic acid. […] The sample was first monitored for absorbance in the range of 190-400 nm and then directly introduced into the mass spectrometer. ESI-MS detection was performed in positive ion mode for which the capillary voltage was 4 kV, cone voltage was 20 V, desolvation temperature was 350° C. and nitrogen gas flow was maintained at 650 L/hr. Mass scans were collected in the range of 1000-2048 amu within 0.25 s and several of these added to enhanced signal-to-noise ratio. Direct Inhibition of Factor XIa. […] After 10 min incubation, 5 μL factor XIa substrate (345 μM) was rapidly added and the residual FXIa activity was measured from the initial rate of increase in absorbance at 405 nm. […] Relative residual FXIa activity at each concentration of the inhibitor was calculated from the ratio of FXIa activity in the presence and absence of the inhibitor. Logistic equation 1 was used to fit the dose-dependence of residual protease activity to obtain the potency (IC50) and efficacy (ΔY) of inhibition.
# A more quantitative test of competitive binding is the Dixon-Webb relationship, which predicts the effect of an ideal competitor on a measured parameter, e.g. KD or IC50.
# human plasma = test: Prothrombin time (PT) plasma clotting assay; format: biochemical
# Method: Plasma clotting assays, prothrombin and activated partial thromboplastin time (PT and APTT, respectively), are routinely used to assess the anticoagulation potential of new enzyme inhibitors in an in vitro setting. Whereas PT measures the effect of an inhibitor on the extrinsic pathway of coagulation, APTT measures the effect on the intrinsic pathway.
# Prothrombin Time (PT) and Activated Partial Thromboplastin Time (APTT) were assessed as described in Example 1.
# factor IXa = target: T2, factor IXa (Homo sapiens, UniProt P00740); test: Factor IXa chromogenic substrate hydrolysis assay; format: biochemical
# T2 construct: purchased Haematologic Technologies (Essex Junction, Vt.); host or cells: human plasma
# T2 sequence (P00740 227-461 limits assumed): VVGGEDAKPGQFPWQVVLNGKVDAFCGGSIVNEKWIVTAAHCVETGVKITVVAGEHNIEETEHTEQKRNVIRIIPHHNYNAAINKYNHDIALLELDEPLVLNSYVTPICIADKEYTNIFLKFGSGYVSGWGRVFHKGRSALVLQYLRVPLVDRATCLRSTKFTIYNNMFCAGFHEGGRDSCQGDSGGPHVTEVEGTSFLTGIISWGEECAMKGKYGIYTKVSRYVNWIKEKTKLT
# T2 sequence (P00740 47-191 partner limits assumed): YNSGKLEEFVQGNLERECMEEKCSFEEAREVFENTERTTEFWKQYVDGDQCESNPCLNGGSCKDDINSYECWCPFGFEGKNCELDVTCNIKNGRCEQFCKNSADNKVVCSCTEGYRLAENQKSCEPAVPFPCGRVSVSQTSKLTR
# factor XIIa = target: T3, factor XIIa (Homo sapiens, UniProt P00748); test: Factor XIIa chromogenic substrate hydrolysis assay; format: biochemical
# T3 construct: purchased Enzyme Research Laboratories (South Bend, Ind.)
# T3 sequence (P00748 373-615 limits assumed): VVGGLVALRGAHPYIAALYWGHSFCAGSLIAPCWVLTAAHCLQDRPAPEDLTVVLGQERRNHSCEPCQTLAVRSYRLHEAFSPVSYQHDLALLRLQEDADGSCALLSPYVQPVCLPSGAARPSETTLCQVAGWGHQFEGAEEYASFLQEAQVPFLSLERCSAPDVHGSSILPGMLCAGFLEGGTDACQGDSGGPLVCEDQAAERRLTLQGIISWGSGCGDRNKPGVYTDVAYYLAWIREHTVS
# C57Bl/6 mice = test: FeCl3 carotid artery thrombosis model; format: in vivo
# Method: Exposure of the carotid artery of C57Bl/6 mice to FeCl3 (either 3.5% or 5.0%) results in formation of an occlusive platelet-rich thrombus within 15 minute.
# human factor XIa = target: T4, human factor XIa (Homo sapiens, UniProt P03951); test: Direct inhibition of factor XIa, chromogenic substrate S-2366 hydrolysis assay; format: biochemical; conditions: for IC50: read-out: IC50 (converted)
# T4 construct: purchased Haematologic Technologies (Essex Junction, Vt.); host or cells: human plasma
# T4 sequence (P03951 19-387 limits assumed): as the sequence (P03951 19-387 limits assumed) above
# T4 sequence (P03951 388-625 limits assumed): as the sequence (P03951 388-625 limits assumed) above
# Method: as §1
# Direct Inhibition of Factor XIa by Sulfated QAOs was performed as described in Example 1.
# The ability of the sulfated inositol analogs to inhibit factor XIa was studied using the in vitro assay described in Example 1. In this assay, the factor XIa enzyme is anticipated to hydrolyze a particular peptide linkage in the corresponding peptide substrate releasing p-nitroaniline which absorbs at wavelength of 405 nm giving a line slope corresponds to the enzyme activity. The line slope of no inhibitor status is considered as a reference slope and it depends on the relative concentrations of factor XIa enzyme and its substrate. Factor XIa enzyme concentration was decided to get appropriate reference slope of approximately 25-35, whereas the substrate concentration was set to be larger than its affinity to factor XIa enzyme under equilibrium condition, Km. In presence of potential factor XIa inhibitor, the enzyme capacity to hydrolyze the designated peptide linkage in the substrate gets diminished or completely abolished depending on the inhibitor concentration and efficacy. […] Such decreased slope reflects a drop in the catalytic enzyme activity of factor XIa.
smiles,measurement,setting,value
"O=C(OC[C@H]1O[C@@H](OC(=O)c2cc(OS(=O)(=O)O)c(O)c(OS(=O)(=O)O)c2)[C@H](OC(=O)c2cc(OS(=O)(=O)O)c(O)c(OS(=O)(=O)O)c2)[C@@H](OC(=O)c2cc(OS(=O)(=O)O)c(O)c(OS(=O)(=O)O)c2)[C@@H]1OC(=O)c1cc(OS(=O)(=O)O)c(O)c(OS(=O)(=O)O)c1)c1cc(OS(=O)(=O)O)c(O)c(OS(=O)(=O)O)c1 [SPGG, Sulfated Pentagalloylglucoside]",HS,human FXIa; UFH 0 μM,1.3 ± 0.1
same,ΔY,human FXIa; UFH 0 μM,97.1 ± 3.2
same,IC50,"human FXIa; UFH 0 μM, Dixon-Webb equation, read-out: IC50, predicted (converted)",0.689 µM
same,HS,human FXIa; UFH 3.33 μM,1.7 ± 0.2
same,ΔY,human FXIa; UFH 3.33 μM,92.7 ± 6.4
same,IC50,"human FXIa; UFH 3.33 μM, Dixon-Webb equation, read-out: IC50, predicted (converted)",2.24 µM
same,IC50,"human FXIa; UFH 3.33 μM, pH 7.4, 37° C., read-out: IC50 (converted)",4.02 µM
same,HS,human FXIa; UFH 33.3 μM,4.0 ± 0.9
same,ΔY,human FXIa; UFH 33.3 μM,58.2 ± 6.6
same,IC50,"human FXIa; UFH 33.3 μM, pH 7.4, 37° C., read-out: IC50 (converted)",18 µM and 17.8 µM
same,IC50,"human FXIa; UFH […], Dixon-Webb equation, read-out: IC50, predicted (converted)",0.747 µM
same,concentration for 2-fold increase in PT,human plasma,298 µg/mL
same,HS,factor IXa,2.2 ± 0.6
same,IC50,factor IXa,655 µM
same,ΔY,factor IXa,100.6 ± 5.8
same,selectivity over factor IXa,factor IXa; FXIa vs factor IXa,950 fold
same,HS,factor XIIa,3.0 ± 1.8
same,IC50,factor XIIa,147 µM
same,ΔY,factor XIIa,55.7 ± 5.9
same,selectivity over factor XIIa,factor XIIa; FXIa vs factor XIIa,200 fold
same,arteries in which thrombosis was prevented,"C57Bl/6 mice; 3.5% FeCl3, doses of 0.025 to 0.2 mg injected 10 min before FeCl3",~100%
same,protection of vessels from occlusion,"C57Bl/6 mice; 5.0% FeCl3, dose of 0.2 mg",protected all vessels from occlusion
same,efficacy of FXIa inhibition,human factor XIa; chromogenic substrate,~100% and 97%
same,ΔY,human factor XIa; efficacy of inhibition,97.1 ± 3.2
same,HS (Hill slope),"human factor XIa; pH 7.4, 37° C.",1.3 and 1.3 ± 0.1
same,IC50,"human factor XIa; pH 7.4, 37° C., S-2366",0.689 µM
same,IC50,human factor XIa; translated with average molecular weight 2178 g/mol,~0.55 µM and 0.551 µM
